# Test results reported in patent US20250269022A1, “ASSESSING AND TREATING CANCER” (Mayo Foundation for Medical Education and Research, priority 2021, published 2025).
# Entries after “also recorded” stand apart in the source; their conditions may differ. Read-outs that look alike come from different tables or passages of the source.
# Assays:
# JeKo-1 cells [1] = assay: CART19 killing of luciferase+ JeKo-1 cells in combination with small molecules; format: cell-based
# Description: CART19 cells were cultured in combination with different molecules at the indicated ratios/concentration, and in combination with the luciferase+ JeKo-1 cells at the indicated E:T ratios. Killing was determined after 24 hours using bioluminescence imaging.
# JeKo1 cell line = assay: In vivo JeKo1 xenograft with navitoclax-treated CART cells; design: species or system NSG mice
# Source text: NSG mice were engrafted with the luciferase positive, CD19+ JeKo1 cell line I.V. One week later, mice underwent bioluminescence imaging (BLI) to determine the level of the disease and then randomized to treatment with CART cells. Mice then underwent weekly BLI to measure disease burden and were followed for survival.
# JeKo-1 cells [2] = assay: Cytotoxicity (killing) assay of CART cells against luciferase+ JeKo-1 cells, with senolytics
# Description: D8 CART cells were treated with navitoclax (0 μM, 0.5 μM, 1 μM, 2 μM, or 4 μM) for 24 hours and then divided into two groups. In the first group, navitoclax was washed away for proliferation and cytotoxicity assays. In the second group, navitoclax treatment was maintained during proliferation and cytotoxicity assays.
# Longitudinal navitoclax treatment of CART cells. D15 and D22 CART cells were generated to mimic possible dysfunctions (e.g., exhaustion, senescence, etc.) that CART cells can develop. Serial activation of CART cells can induce T cell senescence during CART cell generation. This experiment was designed to selectively remove senescing CART cells during CART cell proliferation. During this experiment CART cells were pretreated with navitoclax, the proliferation, EDU, and cytotoxicity assays were done in the absence of navitoclax. Longitudinal treatments included two parts. Part I was a typical CART cell production protocol except for addition of navitoclax at D7 for 24 hours. Briefly, CART cells were activated on day 1, transduced on day 2, and debeaded on day 6. On day 7, CART cells were treated with navitoclax (0 μM, 0.125 μM, 0.25 μM, 0.5 μM, 0.75 μM, 1 μM, or 2 μM). On day 8, the navitoclax was washed away, and the CART cells were prepared for cytotoxicity assays and proliferation assays. For part II, JeKo-1 UDT was added to the CART cells on days 8 and 10, the media was replaced on day 12, and navitoclax was added on day 13. On day 14, the navitoclax was washed away, and the CART cells were prepared for cytotoxicity assays and proliferation assays or JeKo-1 IR was added and the CART cells were prepared for an EdU assay. The CART cells were provided several resting times after being activated by JeKo-1 to provide plenty of resting time to differentiate reversible exhaustion and irreversible T cell senescence. This assay focuses on D8 (freshly generated CART cells), D15 (D8 cells activated with JeKo-1 for a week as indicated as part II in the figure), and D22 CART cells (additional activation summarized in part II on D15 CART cells).
# For killing assays, the CD19+ Luciferase+ mantle cell lymphoma cell like JeKo-1 cells were incubated with effector T cells for 24, 48, or 72 hours. Killing was calculated by bioluminescence imaging on a Xenogen IVIS-200 Spectrum camera (PerkinElmer, Hopkinton, MA, USA) as a measure of residual live cells. Samples were treated with 1 μL D-luciferin (30 μg/mL) per 100 μL sample volume (Gold Biotechnology, St. Louis, MO, USA), for 10 minutes prior to imaging.
# CART cells [3] = assay: EdU assay of cycling CART cells; format: cell-based; settings: navitoclax treated
# Description: Longitudinal navitoclax treatment of CART cells. […] […] Longitudinal treatments included two parts. […] Cells were co-cultured for 3-5 days, and then cells were harvested and surface staining with […]3 (eBioscience, San Diego, CA, USA) and LIVE/DEADTM Fixable Aqua Dead Cell Stain Kit (Invitrogen, Carlsbad, CA, USA) was performed.
# CART cells [4] = assay: Proliferation assay of CART cells co-cultured with JeKo-1 cells, with navitoclax or venetoclax; format: cell-based
# Source text: Longitudinal navitoclax treatment of CART cells. […] Longitudinal treatments included two parts.
# For proliferation assays, effector cells (CART cells), and irradiated target cells (CD19+ JeKo 1 cells) were co-cultured at different ratios and with different concentrations of the compounds. Cells were co-cultured for 3-5 days, and then cells were harvested and surface staining with antihCD3 (eBioscience, San Diego, CA, USA) and LIVE/DEAD™ Fixable Aqua Dead Cell Stain Kit (Invitrogen, Carlsbad, CA, USA) was performed.
# PD-L1 = molecular target: T1, PD-L1 (Homo sapiens, UniProt Q9NZQ7); assay: CART19 antigen-specific proliferation with PD-L1 blockade in presence of PD-L1high CLL-derived EVs; format: cell-based; settings: PD-L1high CLL-derived EVs 100:1, 6 hours, JeKo-1 at E:T 5:1, antibody 20 μg/mL
# T1 construct: These PPP preparations from the peripheral blood of untreated CLL patients are the source of the samples called CLL-derived EVs; from tissue; host or cells: extracellular vesicles in platelet-poor plasma of untreated CLL patients, co-cultured with CART19 cells and then JeKo-1 cells
# Description: CART19 and JeKo-1 or JeKo-1 cells irradiated at 120 Gy were cocultured at a 1:1 ratio with or without CLL-derived EVs. T cells for functional assays were cultured in T cell medium containing X-VIVO 15 (Lonza, Walkersville, MD, USA), 10% human serum albumin (Innovative Research, Novi, MI, USA), and 1% penicillin-streptomycin-glutamine (Gibco, Gaithersburg, MD, USA). EVs were cocultured with CART19 cells at 100:1, 10:1, 5:1, and 1:1 EV/CART cell ratios using three biological replicates of CLL-derived EVs at 37° C., 5% CO2, and then co-cultured with primary CLL cells or JeKo-1 cells as indicated in the specific experiment. Cell supernatant was collected at 24 hours, and cells were analyzed by flow cytometry. To assess killing and proliferation, UTD T cells, CART19 cells, and CART19 cells co-cultured with CLL-derived EVs at a 100:1 EV/CART cell ratio were incubated at 37° C., 5% CO2 for 6 hours before adding JeKo-1 target cells. […] Cells were analyzed by flow cytometry after 48 hours of incubation.
# T1 sequence (Q9NZQ7 19-290): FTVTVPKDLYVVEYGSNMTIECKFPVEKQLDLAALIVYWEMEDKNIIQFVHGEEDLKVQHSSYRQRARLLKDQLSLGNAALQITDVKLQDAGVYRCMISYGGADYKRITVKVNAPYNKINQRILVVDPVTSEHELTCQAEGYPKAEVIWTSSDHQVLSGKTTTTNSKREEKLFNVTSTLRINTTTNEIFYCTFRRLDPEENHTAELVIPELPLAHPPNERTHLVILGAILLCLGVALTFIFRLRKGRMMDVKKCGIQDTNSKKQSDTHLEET
compound,measurement,setting,value
O=S(=O)(c1cccc2cnccc12)N1CCCNCC1 [fasudil],CART19 antigen specific killing,"JeKo-1 cells [1]; combination with CART19 cells, 24 hours, bioluminescence",improved CART19 antigen specific killing
CC1(C)CCC(c2ccc(Cl)cc2)=C(CN2CCN(c3ccc(C(=O)NS(=O)(=O)c4ccc(N[C@H](CCN5CCOCC5)CSc5ccccc5)c(S(=O)(=O)C(F)(F)F)c4)cc3)CC2)C1 [navitoclax],Tumor burden of mice,"JeKo1 cell line; D22 CART cells treated with or without navitoclax, 22 days after CART cell transplantation",not different
same,Antitumor activity of CART cells in vivo,JeKo1 cell line; navitoclax pretreatment of CART cells,did not increase antitumor activity; also recorded: did not improve CART cell activity
same,Cytotoxicity of drug alone against JeKo-1,JeKo-1 cells [2]; 0:1 E:T ratio (no CART),cytotoxic against JeKo-1
same,CART cell cytotoxicity against JeKo-1 in combination with senolytic,"JeKo-1 cells [2]; D8 CART cells co-cultured with JeKo-1 and drug, 48 hours",increased CART cell cytotoxicity
same,CART cell cytotoxicity against JeKo-1,"JeKo-1 cells [2]; navitoclax maintained in assay, higher navitoclax concentrations",decreased CART cell cytotoxicity
same,CART cell cytotoxicity against JeKo-1,"JeKo-1 cells [2]; navitoclax pre-treatment 24 hours, assay without navitoclax",did not result in different cytotoxicity
same,EdU positivity of CART cells,CART cells [3]; D8 and D22 CART cells,similar
same,EdU positivity of CART cells,CART cells [3]; D15 CART cells,decreased
same,CART cell proliferation against JeKo-1 in combination with senolytic,CART cells [4]; CART cells co-cultured with JeKo-1 in presence of drug,decreased CART cell proliferation
same,CART cell proliferation,"CART cells [4]; D8 CART cells continuously treated with navitoclax, co-culture with JeKo-1, vs untreated CART cells",decreased proliferation
same,D22 CART cell proliferation,"CART cells [4]; longitudinal navitoclax treatment vs navitoclax untreated CART cells, in vitro",increase in D22 CART proliferation
same,CART cell proliferation over time,"CART cells [4]; longitudinal navitoclax treatment, D8, D15, D22",decreased proliferation of CART cells through time; also recorded: decreases over time
"CC(C)(CO)[C@@H](O)C(=O)NCCC(=O)NCCSSCCNC(=O)CCNC(=O)[C@H](O)C(C)(C)CO [panthethine, D-pantethine]",CART19 antigen specific killing,JeKo-1 cells [1],improved CART19 antigen specific killing
CC1(C)CCC(CN2CCN(c3ccc(C(=O)NS(=O)(=O)c4ccc(NCC5CCOCC5)c([N+](=O)[O-])c4)c(Oc4cnc5[nH]ccc5c4)c3)CC2)=C(c2ccc(Cl)cc2)C1 [venetoclax],CART cell cytotoxicity against JeKo-1 in combination with senolytic,JeKo-1 cells [2],increased CART cell cytotoxicity
atezolizumab [anti-PD-L1 antibody],Reversal of EV-mediated inhibition of CART19 antigen-specific proliferation,PD-L1,did not improve
same,Reversal of EV-mediated inhibition of CART19 antigen-specific proliferation,PD-L1; listed as PD-L1 blocking antibodies,no statistically significant reversal
